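1) Cells in 96-well plates. 2) Compound, 48 h, 5 concentrations. 3) Linear interpolation between surrounding doses. 4) Unreached endpoint = highest concentration. GI50: concentration for 50% inhibition of growth.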 Activity calls are given as the source filed them. Cut-off read from the data, not from the text of the source: active = GI50 up to about 1.1 µM and inactive = higher.
Columns and labels:
Assay in all cases: inhibition of tumour cell growth, NCI panel, 48 h
[1] = test system: SK-MEL-5
[2] = test system: OVCAR-5
[3] = test system: IGROV-1
[4] = test system: CCRF-CEM
[5] = test system: A498
[6] = test system: SW-620
[7] = test system: T47D
[8] = test system: SNB-75
[9] = test system: UO-31
[10] = test system: Hs-578T
[11] = test system: SK-MEL-2
[12] = test system: U-251
[13] = test system: HL-60
[14] = test system: PC-3
[15] = test system: MDA-MB-231
[16] = test system: OVCAR-8
[17] = test system: SK-OV-3
[18] = test system: MDA-N
[19] = test system: OVCAR-3
[20] = test system: HOP-62

| Compound | GI50 [1] | GI50 [2] | GI50 [3] | GI50 [4] | GI50 [5] | GI50 [6] | GI50 [7] | GI50 [8] | GI50 [9] | GI50 [10] | GI50 [11] | GI50 [12] | GI50 [13] | GI50 [14] | GI50 [15] | GI50 [16] | GI50 [17] | GI50 [18] | GI50 [19] | GI50 [20] |
| --- | --- | --- | --- | --- | --- | --- | --- | --- | --- | --- | --- | --- | --- | --- | --- | --- | --- | --- | --- | --- |
| CC(C)C1OC23CCCCC2C(C#N)(C#N)C1(C#N)C(=N)O3 (configuration not stated) | 16.8 µM (inactive) | 20.1 µM (inactive) | > 10 µM (inactive) | 5.56 µM (inactive) | 25.3 µM (inactive) | 13.7 µM (inactive) | 17.6 µM (inactive) | 28.4 µM (inactive) | 32.7 µM (inactive) | 16.4 µM (inactive) | 26 µM (inactive) | 17.4 µM (inactive) | 5.31 µM (inactive) | 30.4 µM (inactive) | 19.6 µM (inactive) | 20.2 µM (inactive) | > 100 µM (inactive) | 15.8 µM (inactive) | 22.7 µM (inactive) | – |
| COC(=O)[C@@H]1Cc2cc(O)c(O)cc2C2(CCN(C)CC2)O1 | > 10 µM (inactive) | > 10 µM (inactive) | > 10 µM (inactive) | > 10 µM (inactive) | > 10 µM (inactive) | > 10 µM (inactive) | > 10 µM (inactive) | > 10 µM (inactive) | – | > 10 µM (inactive) | > 10 µM (inactive) | > 10 µM (inactive) | > 10 µM (inactive) | > 10 µM (inactive) | > 10 µM (inactive) | > 10 µM (inactive) | > 10 µM (inactive) | > 10 µM (inactive) | > 10 µM (inactive) | > 10 µM (inactive) |
| O=C(O)c1ccccc1Sc1ccc(C=C2NC(=S)N(c3ccccc3)C2=O)s1 | > 100 µM (inactive) | > 100 µM (inactive) | > 100 µM (inactive) | – | > 100 µM (inactive) | > 100 µM (inactive) | 77.6 µM (inactive) | > 100 µM (inactive) | 78.7 µM (inactive) | > 100 µM (inactive) | 22.2 µM (inactive) | > 100 µM (inactive) | 25.2 µM (inactive) | > 100 µM (inactive) | > 100 µM (inactive) | > 100 µM (inactive) | – | > 100 µM (inactive) | 47.5 µM (inactive) | > 100 µM (inactive) |
| CC(=O)OC12c3ccccc3C(c3ccccc31)C1C(=O)N(Nc3ccccc3)C(=O)C12 (configuration not stated) | > 100 µM (inactive) | > 100 µM (inactive) | > 100 µM (inactive) | > 100 µM (inactive) | > 100 µM (inactive) | > 100 µM (inactive) | > 100 µM (inactive) | 92.7 µM (inactive) | > 100 µM (inactive) | 23.1 µM (inactive) | – | > 100 µM (inactive) | > 100 µM (inactive) | > 100 µM (inactive) | > 100 µM (inactive) | > 100 µM (inactive) | > 100 µM (inactive) | > 100 µM (inactive) | > 100 µM (inactive) | > 100 µM (inactive) |
| O=C(Cc1nc2ccc(C(=O)c3ccccc3)cc2nc1O)C(=O)Nc1ccccc1[N+](=O)[O-] | 46 µM (inactive) | > 100 µM (inactive) | 40.8 µM (inactive) | 50.9 µM (inactive) | > 100 µM (inactive) | 53.7 µM (inactive) | 54.3 µM (inactive) | 26.2 µM (inactive) | 40 µM (inactive) | 47.8 µM (inactive) | 91.2 µM (inactive) | 88.5 µM (inactive) | 40.3 µM (inactive) | 51.1 µM (inactive) | 38.1 µM (inactive) | 33.5 µM (inactive) | > 100 µM (inactive) | 39.4 µM (inactive) | > 100 µM (inactive) | – |
| CN(C(=O)C12C3C4C1C1C2C3C41C(=O)O)C(C)(C)C (configuration not stated) | > 100 µM (inactive) | > 100 µM (inactive) | > 100 µM (inactive) | > 100 µM (inactive) | > 100 µM (inactive) | > 100 µM (inactive) | > 100 µM (inactive) | > 100 µM (inactive) | > 100 µM (inactive) | > 100 µM (inactive) | > 100 µM (inactive) | > 100 µM (inactive) | > 100 µM (inactive) | > 100 µM (inactive) | > 100 µM (inactive) | > 100 µM (inactive) | – | > 100 µM (inactive) | > 100 µM (inactive) | > 100 µM (inactive) |
| CN(C)CCC(C#N)(c1ccccc1)c1ccccc1 | 24.7 µM (inactive) | 79.6 µM (inactive) | 55.1 µM (inactive) | – | 71.3 µM (inactive) | > 100 µM (inactive) | 97.9 µM (inactive) | 52.6 µM (inactive) | 65.9 µM (inactive) | 93.5 µM (inactive) | > 100 µM (inactive) | 88.9 µM (inactive) | 6.62 µM (inactive) | 87.3 µM (inactive) | 47.5 µM (inactive) | 96.2 µM (inactive) | > 100 µM (inactive) | 45 µM (inactive) | > 100 µM (inactive) | > 100 µM (inactive) |
| Cc1c(C)c2c(c(N)c1C#N)C(=O)N(CCc1ccccc1)C2=O | > 100 µM (inactive) | > 100 µM (inactive) | > 100 µM (inactive) | > 100 µM (inactive) | > 100 µM (inactive) | > 100 µM (inactive) | > 100 µM (inactive) | > 100 µM (inactive) | > 100 µM (inactive) | > 100 µM (inactive) | > 100 µM (inactive) | > 100 µM (inactive) | 29.2 µM (inactive) | > 100 µM (inactive) | > 100 µM (inactive) | > 100 µM (inactive) | – | > 100 µM (inactive) | > 100 µM (inactive) | – |
| COc1cc2c(cc1OC)C13CCN4CC5=CCOC6CC(=O)N2C1C6C5CC43O (configuration not stated) | > 100 µM (inactive) | > 100 µM (inactive) | > 100 µM (inactive) | > 100 µM (inactive) | > 100 µM (inactive) | > 100 µM (inactive) | > 100 µM (inactive) | > 100 µM (inactive) | > 100 µM (inactive) | > 100 µM (inactive) | > 100 µM (inactive) | > 100 µM (inactive) | > 100 µM (inactive) | > 100 µM (inactive) | > 100 µM (inactive) | > 100 µM (inactive) | > 100 µM (inactive) | > 100 µM (inactive) | > 100 µM (inactive) | – |
| O=c1c(C(c2cccnc2)c2c(O)oc3cc(O)ccc3c2=O)c(O)oc2cc(O)ccc12 | > 100 µM (inactive) | > 100 µM (inactive) | > 100 µM (inactive) | – | > 100 µM (inactive) | > 100 µM (inactive) | > 100 µM (inactive) | > 100 µM (inactive) | > 100 µM (inactive) | > 100 µM (inactive) | > 100 µM (inactive) | > 100 µM (inactive) | > 100 µM (inactive) | > 100 µM (inactive) | > 100 µM (inactive) | > 100 µM (inactive) | > 100 µM (inactive) | > 100 µM (inactive) | > 100 µM (inactive) | > 100 µM (inactive) |
